Molecules are shown by their SMILES. ≈ marks a conversion by molar mass, not a printed value. Some results are limits rather than exact numbers.

The conditions of the series: buffer; pH 7.4; 200.0 µM.
For the compound `CCOc1ccc(CN2CCSCC2)cc1`, the kinetic solubility stood at 18.5 µg/mL (≈ 77.9 µM). Compound `O=C(c1cccs1)N1CCN=C1SCc1ccccc1F` showed a solubility (kinetic) of less than 0.3 µg/mL.

As for `COC(=O)c1cc2occc2n1Cc1nc(-c2ccccc2F)oc1C`, the kinetic solubility is 1.4 µg/mL (≈ 3.95 µM). In the case of `CC(C)C(=O)Nc1ccc(N2CCCC2)c(Cl)c1` it was 10.4 µg/mL (≈ 39 µM).

Compound `O=C(CC(=O)c1ccccc1)Nc1ccc(Cl)cc1` came in with a solubility (kinetic) of 3.3 µg/mL (≈ 12.1 µM). As for `Fc1ccccc1OCCn1c(=S)[nH]c2ccccc21`, the solubility (kinetic) is 6 µg/mL (≈ 20.8 µM). `Cc1cnc(NC(=O)CSCc2c(C)noc2C)s1` returned a kinetic solubility of 19.6 µg/mL (≈ 65.9 µM). As for `O=C1NC(=O)N(CCC2=CCCCC2)C(=O)/C1=C/c1cccs1`, the solubility (kinetic) stood at 26.1 µg/mL (≈ 79 µM). As for `COc1cc(CC(=O)Nc2cccc(S(=O)(=O)N(C)c3ccccc3)c2)cc(OC)c1OC`, the kinetic solubility was 14.1 µg/mL (≈ 30 µM). Compound `O=C1CC(C(=O)N2CCCc3ccccc32)CN1c1ccc(Cl)cc1` (configuration not stated) registered a solubility (kinetic) of 46.2 µg/mL (≈ 130 µM). Compound `CC(=O)NCCc1nc2cc(NC(=O)c3ccccc3Cl)ccc2n1C` yielded a kinetic solubility greater than 55.6 µg/mL. `CCOC(=O)c1ccc(NC(=S)NC(=O)C2CCCC2)cc1` yielded a kinetic solubility of less than 0.3 µg/mL. `CCN1C(C(=O)Nc2cc(C)on2)=C(O)c2ccccc2S1(=O)=O`: the kinetic solubility was greater than 52.4 µg/mL. For `Cc1cc(NC(=O)c2coc(=O)c(Br)c2)ccc1C(C)C`, the kinetic solubility was 2.5 µg/mL (≈ 7.14 µM). `O=C(NC1CCCC1)C1CCN(C(=O)c2cccc(Cl)c2)CC1` came in with a kinetic solubility greater than 50.2 µg/mL.

The compound `CN(C)c1ccc(C(=O)N2CCCC2)cc1` came in with a solubility (kinetic) greater than 32.7 µg/mL.

In turn, `C/C(=N\Nc1nccnc1Cl)c1ccc(F)cc1` had a kinetic solubility greater than 39.7 µg/mL.

Compound `CN(CCc1ccccc1)C1CCCN(S(=O)(=O)N(C)C)C1` (configuration not stated) displayed a solubility (kinetic) greater than 48.8 µg/mL. Compound `COc1ccc2[nH]c(C(=O)NCCc3ccccc3)cc2c1` displayed a kinetic solubility of 1 µg/mL (≈ 3.4 µM). `CCSC1=N/C(=C\c2ccccc2)C(=O)N1c1ccc(OC)cc1` displayed a kinetic solubility of less than 0.4 µg/mL. For `COc1ccc(C)cc1C(=O)CCC(=O)NC1CCCCC1`, the solubility (kinetic) came to 21.2 µg/mL (≈ 69.9 µM). With `O=C(COC(=O)CC1CCS(=O)(=O)C1)Nc1ccc(F)cc1` (configuration not stated), the kinetic solubility was greater than 49.4 µg/mL.

As for `CC1C2NC(=O)N(Cc3ccccc3)C1(C)Oc1ccccc12` (configuration not stated), the solubility (kinetic) was 20.9 µg/mL (≈ 67.8 µM). The compound `O=[N+]([O-])c1cccc(-c2nc3ccc([N+](=O)[O-])cc3[nH]2)c1` registered a solubility (kinetic) of 1.2 µg/mL (≈ 4.22 µM). `COc1ccccc1CC(=O)NCC(c1ccco1)N1CCCCC1` (configuration not stated) showed a kinetic solubility greater than 51.4 µg/mL.

`COc1ccc(C(C)NC(=O)c2ccncc2)cc1OC` (configuration not stated): the solubility (kinetic) was greater than 42.9 µg/mL. For the compound `C/C(=C\c1ccc2c(c1)OCO2)C(=O)c1c(C)cc(C)[nH]c1=O`, the kinetic solubility was greater than 46.7 µg/mL. In the case of `Cc1ccc(S(=O)(=O)NCC2(c3ccccc3)CCOCC2)cc1`, the solubility (kinetic) is less than 0.7 µg/mL.

Take `Cc1cc(C)nc(SCc2ccc(F)cc2)n1`: the solubility (kinetic) worked out at 10 µg/mL (≈ 40.3 µM).

`Cc1ccccc1NC(=O)Cc1cccc(C(F)(F)F)c1` registered a solubility (kinetic) of 5.3 µg/mL (≈ 18.1 µM).

Compound `Cc1cnc(C(=O)OCC(=O)NCc2cccc(Cl)c2)cn1` displayed a solubility (kinetic) greater than 48 µg/mL.

In turn, `COc1cccc(OC)c1C(=O)Nc1cccc2c1CCCC2` had a solubility (kinetic) of 41.1 µg/mL (≈ 132 µM). Regarding `COc1ccccc1NC(=O)CCN1C(=O)C2CC=CCC2C1=O` (configuration not stated), the kinetic solubility is greater than 49.3 µg/mL.

Compound `CN(C)c1ccc(C(CN)c2c[nH]c3ccccc23)cc1` (configuration not stated) had a kinetic solubility of 30.2 µg/mL (≈ 108 µM). `CC(=O)CC(C)(C)Nc1nc2ccc([N+](=O)[O-])cc2o1` showed a kinetic solubility greater than 41.6 µg/mL.

Turning to `Cc1c(C(=O)NCc2ccccc2F)oc2ccccc12`, the solubility (kinetic) stood at 1.5 µg/mL (≈ 5.29 µM). For the compound `O=S1(=O)N=C2CCCCCN2C(c2ccc(F)cc2)N1` (configuration not stated), the solubility (kinetic) was greater than 44.6 µg/mL. Take `O=C(CCCc1ccccc1)NCCCc1ccccc1`: the kinetic solubility worked out at 33 µg/mL (≈ 117 µM). In the case of `CC1CC(CN)CC(CO)C1` (configuration not stated) it was greater than 23.6 µg/mL; in that of `COC(=O)C1=C(NC(=O)c2ccccc2C)CCS1`, 10 µg/mL (≈ 36.1 µM). `OC(CCNCCc1c[nH]c2ccccc12)C(F)(F)Cl` (configuration not stated) had a solubility (kinetic) greater than 45.4 µg/mL. As for `O=C(Nc1ccc2ccccc2c1)c1cccc([N+](=O)[O-])c1`, the solubility (kinetic) is less than 0.3 µg/mL.

The compound `CC(C)CC(=O)NC(=S)Nc1ccccc1N1CCCC1` registered a solubility (kinetic) of 4 µg/mL (≈ 13.1 µM). Turning to `COc1cccc(NC(=O)CN2C(=O)NC(C)(CC(C)C)C2=O)c1` (configuration not stated), the solubility (kinetic) was greater than 50 µg/mL.

Take `O=C(O)Cn1cnc2c(oc3ccccc32)c1=O`: the solubility (kinetic) was greater than 36.6 µg/mL. `O=C(O)Cc1csc(-c2cccc(F)c2)n1`: the kinetic solubility was greater than 35.6 µg/mL. `O=C(Cc1ccc(Br)cc1)Nc1ncc([N+](=O)[O-])s1` came in with a solubility (kinetic) of 7.8 µg/mL (≈ 22.8 µM). Regarding `Cc1ccc2nc(-c3ccccc3)cc(C(=O)N3CC(C)OC(C)C3)c2c1` (configuration not stated), the solubility (kinetic) was 49.1 µg/mL (≈ 136 µM). The result for `Cc1ccc(-c2nsc(SCC(=O)NCC3CCCO3)n2)cc1` (configuration not stated) reads greater than 52.4 µg/mL; that for `O=C(c1ccc([N+](=O)[O-])cc1)N1CCN=C1SCc1ccccc1`, 17.4 µg/mL (≈ 51 µM); that for `Cc1cc(C)cc(OCC(=O)Nc2cc(C)on2)c1`, 1.5 µg/mL (≈ 5.76 µM). `CCOC(=O)C1(Cc2ccccc2)C(=O)N(CCCN(C)C)c2ccccc21.Cl` (configuration not stated) yielded a solubility (kinetic) of 57 µg/mL.

For orientation: solubility (kinetic) means the concentration staying in solution when a stock, usually in DMSO, is diluted into the medium.

For the origin of these results see PubChem BioAssay AID1996.
